Assay results as given in paper PMC6081452, “Downstream Products are Potent Inhibitors of the Heparan Sulfate 2-O-Sulfotransferase” (Scientific Reports, 2018).
Changes are numbered by the printed parent chain.

Assays:
non-glyc-HS2ST R189A = biological target: T1, non-glyc-HS2ST R189A (Gallus gallus, UniProt Q76KB1, R189A); test: BLI equilibrium binding, non-glyc-HS2ST R189A; design: species or system chicken; conditions: BLI saturation binding curves, n = 3, ± standard error of fit; — = response too weak to fit
T1 construct: made in house; host or cells: E. coli Origami B (DE3)
T1 sequence (Q76KB1 69-356 R189A limits assumed): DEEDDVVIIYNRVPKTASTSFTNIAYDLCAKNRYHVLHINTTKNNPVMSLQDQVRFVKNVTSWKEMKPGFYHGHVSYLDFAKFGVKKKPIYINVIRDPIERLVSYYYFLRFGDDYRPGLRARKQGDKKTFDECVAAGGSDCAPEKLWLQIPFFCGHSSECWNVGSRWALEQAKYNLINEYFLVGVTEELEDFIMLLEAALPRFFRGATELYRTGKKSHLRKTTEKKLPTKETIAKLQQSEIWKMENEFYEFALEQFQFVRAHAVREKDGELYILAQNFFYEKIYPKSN
Description: (§1) To assess whether the inhibitory compounds interact with the active site, point mutations were introduced in non-glyc-HS2ST (Fig. 4a). Four mutants of the catalytic residue (H142A/E/R/K) were created, along with a mutation of the residue that facilitates 2-O-sulfation of IdoA residues (R189A)[27]. Additionally, a negative control (NC) was generated containing multiple mutations of positively charged residues (R189A, R80E, and R184E) that reduced the net charge of each protein monomer by 5. The extent that the mutations affected affinity provided an indication that the ligand had been bound in the active site (Table 1 and Supplementary Fig. 1). While R189A markedly diminished the affinity for all compounds, the NC mutations reduced affinity to immeasurable levels. Removal of the catalytic side chain (H142A) enhanced the affinity of each compound, compared to the WT, by approximately 2–3-fold. Addition of a positive charge at this location (H142K/R) further enhanced the affinity for each compound, so much so that a KD value could be measured even for 2. The H142E mutation diminished the affinity of 5 by half compared to WT, but its effects were less significant for binding to 3 or 4.
(§2) The chicken HS2ST-Maltose Binding Protein (MBP) fusion protein was expressed and purified according to previous studies. The fusion protein was transformed into E. coli Origami B (DE3) cells, cultured at 37 °C until OD600 reached 0.5, then induced with isopropyl-β-D-thiogalactopyranoside and allowed to grow overnight at 20 °C. Cells were sonicated, followed by a two-step purification procedure. Whole-cell supernatant was passed through an amylose column with Tris buffer (25 mM Tris, 500 mM NaCl, pH 7.5). An elution buffer consisted of Tris Buffer with 40 mM Maltose. The amylose column eluent was concentrated and loaded on a Superdex 200 Increase 10/300 GL with PBS buffer (10 mM sodium phosphate, 150 mM NaCl, pH 7.8) to separate trimeric protein from aggregate and independent MBP (Supplementary Fig. 4). All reported mutations formed homotrimeric complexes according to the SEC profiles, including the negative control (NC = R189A/R80E/R184E). Protein concentration was assessed via UV at 280 nm (MW of trimer ~210 KDa, extinction coefficient ~119,000 M^−1 cm^−1 according to ExPASy ProtParam webtool[56]). The trimeric protein preparation was adjusted to 5% glycerol and stored at −20 °C until use. Additional non-glyc-HS2ST constructs were created with the Q5® Mutagenesis kit (New England Biolabs Inc.; cat. # E0554S) and sequenced at the Georgia Genomics Facility at the University of Georgia.
(§3) The Octet® RED96 system (FortéBio Inc.) was employed to detect the affinity of the enzymes for specific HS targets. […]

non-glyc-HS2ST H142R = biological target: T2, non-glyc-HS2ST H142R (Gallus gallus, UniProt Q76KB1, H142R); test: BLI equilibrium binding, non-glyc-HS2ST H142R; design: species or system chicken; conditions: BLI saturation binding curves, n = 3, ± standard error of fit
T2 construct: made in house; host or cells: E. coli Origami B (DE3)
T2 sequence (Q76KB1 69-356 H142R limits assumed): T1 sequence (Q76KB1 69-356 R189A limits assumed) with H74R, A121R
Description: as §1, §2, §3

Row | Kd (non-glyc-HS2ST R189A) [nM] | Kd (non-glyc-HS2ST H142R) [nM] | Substance
1 | 63 ± 5 | 10 ± 1 | GlcNS6S-GlcA-GlcNS3S6S-IdoA2S-GlcNS6S-GlcA~ [Compound 4]
2 | > 500 | 13 ± 1 | GlcNS6S-GlcA-GlcNS6S-GlcA-GlcNS6S-GlcA~ [Compound 5]
3 | 448 ± 124 | 12 ± 1 | GlcNS6S-GlcA-GlcNS6S-IdoA2S-GlcNS6S-GlcA~ [Compound 3]
4 | > 500 | 136 ± 20 | GlcNS-GlcA-GlcNS-IdoA2S-GlcNS-GlcA~ [Compound 2]
